Experimental data reported in ChEMBL document CHEMBL1201862, “PubChem BioAssay data set” (2004).
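All cell lines were grown in 96-well plates and treated with compound for 48 hours. Here, GI50 denotes the concentration required for 50% inhibition of growth.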 The source made the active and inactive calls. Rule as the data show it: active = GI50 up to about 1.1 µM and inactive = higher. Non-standard residues stand in square brackets, D forms with d. Residues, ends and D or L forms follow the SMILES beside them. *: point of attachment. NMeF = CN[CH](Cc1ccccc1)C(=O)O; NMeV = CN[CH](C(=O)O)C(C)C; Boc = CC(C)(C)OC(=O)*

Legend:
Experiment in all cases: NCI-60 cell line screen, 48 h
NCI-H522 = test system: NCI-H522
TK-10 = test system: TK-10
HCT-15 = test system: HCT-15
MOLT-4 = test system: MOLT-4
UACC-257 = test system: UACC-257
UO-31 = test system: UO-31
RPMI-8226 = test system: RPMI-8226
U-251 = test system: U-251
UACC-62 = test system: UACC-62
SF-539 = test system: SF-539
DU-145 = test system: DU-145
K562 = test system: K562
SW-620 = test system: SW-620
MDA-MB-231 = test system: MDA-MB-231
SNB-19 = test system: SNB-19
NCI/ADR-RES = test system: NCI/ADR-RES
MDA-MB-435 = test system: MDA-MB-435
IGROV-1 = test system: IGROV-1
Hs-578T = test system: Hs-578T
MDA-N = test system: MDA-N

SMILES: [O-][n+]1c2ccccc2[n+]([O-])c2cc(Br)ccc21
- GI50 (NCI-H522): 12.9 µM (inactive)
- GI50 (TK-10): 26.1 µM (inactive)
- GI50 (HCT-15): 13.3 µM
- GI50 (MOLT-4): 0.144 µM (active)
- GI50 (UACC-257): 17.9 µM (inactive)
- GI50 (UO-31): 9.48 µM (inactive)
- GI50 (RPMI-8226): 8.05 µM (inactive)
- GI50 (U-251): 14.6 µM (inactive)
- GI50 (UACC-62): 18.3 µM (inactive)
- GI50 (SF-539): 13.9 µM (inactive)
- GI50 (DU-145): 24.7 µM (inactive)
- GI50 (K562): 4.63 µM (inactive)
- GI50 (SW-620): 20.6 µM (inactive)
- GI50 (MDA-MB-231): 24.4 µM (inactive)
- GI50 (SNB-19): 33.2 µM (inactive)
- GI50 (NCI/ADR-RES): 16.1 µM (inactive)
- GI50 (MDA-MB-435): 18.2 µM (inactive)
- GI50 (IGROV-1): 5.81 µM (inactive)
- GI50 (Hs-578T): 35.2 µM (inactive)

SMILES: CN(C)c1ccc(/C=c2/c3ccccc3n3c2cc(C24CC5CC(CC(C5)C2)C4)[n+]3C)cc1
- GI50 (NCI-H522): 0.0923 µM (active)
- GI50 (TK-10): 0.39 µM (active)
- GI50 (HCT-15): 0.446 µM
- GI50 (MOLT-4): 0.998 µM (active)
- GI50 (UACC-257): 0.251 µM (active)
- GI50 (UO-31): 0.29 µM (active)
- GI50 (RPMI-8226): 0.053 µM (active)
- GI50 (U-251): 0.0664 µM (active)
- GI50 (UACC-62): 0.345 µM (active)
- GI50 (SF-539): 0.123 µM (active)
- GI50 (DU-145): 0.311 µM (active)
- GI50 (K562): 0.0998 µM (active)
- GI50 (SW-620): 0.148 µM (active)
- GI50 (MDA-MB-231): 0.281 µM (active)
- GI50 (SNB-19): 0.266 µM (active)
- GI50 (NCI/ADR-RES): 1.52 µM (inactive)
- GI50 (MDA-MB-435): 0.176 µM (active)
- GI50 (IGROV-1): 0.127 µM (active)
- GI50 (MDA-N): 0.33 µM (active)

SMILES: CC(CC=O)Nc1nn2c(=O)c3ccccc3nc2s1 (stereo not given)
- GI50 (NCI-H522): > 100 µM (inactive)
- GI50 (TK-10): > 100 µM (inactive)
- GI50 (HCT-15): > 100 µM
- GI50 (MOLT-4): > 100 µM (inactive)
- GI50 (UACC-257): > 100 µM (inactive)
- GI50 (UO-31): 18.2 µM (inactive)
- GI50 (RPMI-8226): > 100 µM (inactive)
- GI50 (U-251): > 100 µM (inactive)
- GI50 (UACC-62): 43.1 µM (inactive)
- GI50 (SF-539): > 100 µM (inactive)
- GI50 (DU-145): > 100 µM (inactive)
- GI50 (K562): > 100 µM (inactive)
- GI50 (SW-620): > 100 µM (inactive)
- GI50 (SNB-19): > 100 µM (inactive)
- GI50 (NCI/ADR-RES): > 100 µM (inactive)
- GI50 (MDA-MB-435): > 100 µM (inactive)
- GI50 (IGROV-1): > 100 µM (inactive)
- GI50 (Hs-578T): > 100 µM (inactive)

SMILES: CC(C)C(NC(=O)OC(C)(C)C)C(=O)N(C)C(Cc1ccccc1)C(=O)N(C)C(C(=O)O)C(C)C (stereo not drawn) (Boc-Val-[NMeF]-[NMeV]-OH; configuration not given here)
- GI50 (NCI-H522): 71.1 µM (inactive)
- GI50 (TK-10): > 100 µM (inactive)
- GI50 (HCT-15): > 100 µM
- GI50 (MOLT-4): > 100 µM (inactive)
- GI50 (UACC-257): > 100 µM (inactive)
- GI50 (UO-31): > 100 µM (inactive)
- GI50 (RPMI-8226): > 100 µM (inactive)
- GI50 (U-251): > 100 µM (inactive)
- GI50 (UACC-62): > 100 µM (inactive)
- GI50 (SF-539): > 100 µM (inactive)
- GI50 (K562): > 100 µM (inactive)
- GI50 (SW-620): > 100 µM (inactive)
- GI50 (SNB-19): > 100 µM (inactive)
- GI50 (IGROV-1): > 100 µM (inactive)

SMILES: c1cc2ccc1C1NCCCN1CCN1CCCNC1c1ccc(cc1)C1NCCCN1CCN1CCCNC21 (stereo not given)
- GI50 (NCI-H522): 23.1 µM (inactive)
- GI50 (TK-10): > 100 µM (inactive)
- GI50 (HCT-15): 61.8 µM
- GI50 (MOLT-4): > 100 µM (inactive)
- GI50 (UACC-257): > 100 µM (inactive)
- GI50 (UO-31): > 100 µM (inactive)
- GI50 (RPMI-8226): 70.6 µM (inactive)
- GI50 (U-251): 54.2 µM (inactive)
- GI50 (UACC-62): > 100 µM (inactive)
- GI50 (SF-539): > 100 µM (inactive)
- GI50 (K562): 37 µM (inactive)
- GI50 (SW-620): 18.5 µM (inactive)
- GI50 (SNB-19): > 100 µM (inactive)
- GI50 (IGROV-1): > 100 µM (inactive)

SMILES: Cc1ccccc1-n1c(N)c(-c2nc3ccccc3[nH]2)sc1=S
- GI50 (NCI-H522): 21.3 µM (inactive)
- GI50 (TK-10): 39.3 µM (inactive)
- GI50 (HCT-15): 34.7 µM
- GI50 (MOLT-4): 27.7 µM (inactive)
- GI50 (UACC-257): 19.3 µM (inactive)
- GI50 (UO-31): 23.8 µM (inactive)
- GI50 (RPMI-8226): 23.1 µM (inactive)
- GI50 (U-251): > 10 µM (inactive)
- GI50 (UACC-62): 18.8 µM (inactive)
- GI50 (SF-539): 24.1 µM (inactive)
- GI50 (K562): 36.6 µM (inactive)
- GI50 (SW-620): 31.1 µM (inactive)
- GI50 (SNB-19): 24.9 µM (inactive)
- GI50 (IGROV-1): 24.8 µM (inactive)

SMILES: CN1CCCCC(C(O)(c2ccccc2)c2ccccc2)C1=O (stereo not given)
- GI50 (NCI-H522): > 100 µM (inactive)
- GI50 (TK-10): > 100 µM (inactive)
- GI50 (HCT-15): 16.3 µM
- GI50 (MOLT-4): > 100 µM (inactive)
- GI50 (UACC-257): > 100 µM (inactive)
- GI50 (UO-31): > 100 µM (inactive)
- GI50 (RPMI-8226): 24.1 µM (inactive)
- GI50 (U-251): > 100 µM (inactive)
- GI50 (UACC-62): > 100 µM (inactive)
- GI50 (SF-539): > 100 µM (inactive)
- GI50 (K562): > 100 µM (inactive)
- GI50 (SW-620): 11.9 µM (inactive)
- GI50 (SNB-19): > 100 µM (inactive)
- GI50 (IGROV-1): > 100 µM (inactive)

SMILES: Cc1cccc2sc(NC(=O)c3cc([N+](=O)[O-])ccc3Cl)nc12
- GI50 (NCI-H522): 1.78 µM (inactive)
- GI50 (TK-10): 2.59 µM (inactive)
- GI50 (HCT-15): 1.91 µM
- GI50 (UACC-257): 6.84 µM (inactive)
- GI50 (UO-31): 2.34 µM (inactive)
- GI50 (RPMI-8226): 3.31 µM (inactive)
- GI50 (U-251): 2.85 µM (inactive)
- GI50 (UACC-62): 3.61 µM (inactive)
- GI50 (SF-539): 2.36 µM (inactive)
- GI50 (DU-145): 3.33 µM (inactive)
- GI50 (K562): > 100 µM (inactive)
- GI50 (SW-620): 2.42 µM (inactive)
- GI50 (MDA-MB-231): 4.73 µM (inactive)
- GI50 (SNB-19): 7.78 µM (inactive)
- GI50 (NCI/ADR-RES): 2.76 µM (inactive)
- GI50 (MDA-MB-435): 2.67 µM (inactive)
- GI50 (IGROV-1): 2.68 µM (inactive)
- GI50 (MDA-N): 1.56 µM (inactive)
